This is an account of results in patent US9734282B2, “Biological dataset profiling of cardiovascular disease and cardiovascular inflammation” (DISCOVERX CORPORATION, priority 2005, dated 2017).

Assay [1] relates to Peripheral Blood Mononuclear Cells + Endothelial Cells. The experiment in a line: BioMAP SAg system (PBMC + endothelial cells, TCR), cell-based ELISA. The arrangement: species or system human. The settings on record: for CD69 level / E-selectin level / IL-8 level: protein level drug-treated versus buffer control, 24 h. The method, then: (§1) Human umbilical vein endothelial cells (HUVEC) were cultured according to standard methods, and plated into microtiter plates. Peripheral blood mononuclear cells (PBMC) were prepared from buffy coats from normal human donors according to standard methods. Experiments were performed by culturing HUVEC in microtiter plates in the presence of cytokines (IL-1b, 1 ng/ml; TNF-a, 5 ng/ml; and IFN-g, 100 ng/ml, or IL-4, 5 ng/ml and histamine, […]), activators (SAg, 20 ng/ml or LPS, 0.2 ng/ml), and/or PBMC (7.5×10^4 cells/well) for 24 h. Compounds were tested at the indicated concentrations. Compounds were prepared in the solvent as directed, added 1 hr before stimulation of the cells, and were present during the whole 24 hr stimulation period.
(§2) The levels of readout parameters (proteins) were measured by cell-based ELISA. Briefly, microtiter plates are treated, blocked, and then incubated with primary antibodies or isotype control antibodies (0.01-0.5 mg/ml) for 1 hr. After washing, plates were incubated with a peroxidase-conjugated anti-mouse IgG secondary antibody or a biotin-conjugated anti-mouse IgG antibody for 1 hr followed by streptavidin-HRP for 30 min. Plates were washed and developed with TMB substrate and the absorbance (OD) was read at 450 nm (subtracting the background absorbance at 650 nm). Other readout parameters include: total protein levels (SRB assay), measuring the viability of peripheral blood mononuclear cells (incorporation of propidium iodide); and microscopic visualization. SRB was performed by staining cells with 0.1% sulforhodamine B after fixation with 10% TCA, and reading wells at 560 nm. PBMC viability was assessed by adding propidium iodide (10 mg/ml) to PBMC that had been cultured for 24 hours in the presence of activators and measuring the percentage of cells that incorporated dye by flow cytometry after 10 minutes.
(§3) For data analysis, mean OD values (or other measurements) for each parameter were calculated from triplicate samples per experiment. The mean value obtained for each parameter in a treated sample was then divided by the mean value from an appropriate control to generate a ratio. All ratios were then log 10 transformed. An average or “trusted” profile was created by averaging 2 repeats of the experiment for each compound and concentration combination. 99% prediction envelopes (grey shading in Figures) were calculated for historical controls.
(In general: In an ELISA, binding on a coated surface is turned into a signal by an enzyme label.)

Assay [2] has as its system Primary Human Endothelial Cells (HUVEC). The experiment in a line: BioMAP 3C system (endothelial cells + IL-1β + TNF-α + IFN-γ), cell-based ELISA. Conditions: for uPAR level: protein level drug-treated versus buffer control, 24 h. The method, then: Human umbilical vein endothelial cells (HUVEC) were cultured according to standard methods, and plated into microtiter plates. Peripheral blood mononuclear cells (PBMC) were prepared from buffy coats from normal human donors according to standard methods. Experiments were performed by culturing HUVEC in microtiter plates in the presence of cytokines (IL-1b, 1 ng/ml; TNF-a, 5 ng/ml; and IFN-g, 100 ng/ml, or IL-4, 5 ng/ml and histamine, […]), activators (SAg, 20 ng/ml or LPS, 0.2 ng/ml), and/or PBMC (7.5×10^4 cells/well) for 24 h. Compounds were tested at the indicated concentrations. Compounds were prepared in the solvent as directed, added 1 hr before stimulation of the cells, and were present during the whole 24 hr stimulation period. The levels of readout parameters (proteins) were measured by cell-based ELISA. Briefly, microtiter plates are treated, blocked, and then incubated with primary antibodies or isotype control antibodies (0.01-0.5 mg/ml) for 1 hr. After washing, plates were incubated with a peroxidase-conjugated anti-mouse IgG secondary antibody or a biotin-conjugated anti-mouse IgG antibody for 1 hr followed by streptavidin-HRP for 30 min. Plates were washed and developed with TMB substrate and the absorbance (OD) was read at 450 nm (subtracting the background absorbance at 650 nm). Other readout parameters include: total protein levels (SRB assay), measuring the viability of peripheral blood mononuclear cells (incorporation of propidium iodide); and microscopic visualization. SRB was performed by staining cells with 0.1% sulforhodamine B after fixation with 10% TCA, and reading wells at 560 nm. PBMC viability was assessed by adding propidium iodide (10 mg/ml) to PBMC that had been cultured for 24 hours in the presence of activators and measuring the percentage of cells that incorporated dye by flow cytometry after 10 minutes. For data analysis, mean OD values (or other measurements) for each parameter were calculated from triplicate samples per experiment. […] 99% prediction envelopes (grey shading in Figures) were calculated for historical controls.

Assay [3] shares this test system. The experiment in a line: BioMAP 4H system (endothelial cells + IL-4 + histamine), cell-based ELISA. The settings on record: protein level drug-treated versus buffer control, 24 h. As for the experimental part: as §1, §2, §3
Assay [4] has as its system HUVEC and HUVEC + PBMC systems. The experiment in a line: 4 system BioMAP activity profile (3C, 4H, LPS, SAg). The assay is classed as cell-based, human. The settings on record: data not shown. As for the experimental part:
as §1, §2
For data analysis, mean OD values (or other measurements) for each parameter were calculated from triplicate samples per experiment. […] 99% prediction envelopes (grey shading in Figures) were calculated for historical controls.

Assay [5] relates to Peripheral Blood Mononuclear Cells + Endothelial Cells. The experiment in a line: BioMAP LPS system (PBMC + endothelial cells, TLR4), cell-based ELISA. Also on record: species or system human. As for the experimental part: Human umbilical vein endothelial cells (HUVEC) were cultured according to standard methods, and plated into microtiter plates. Peripheral blood mononuclear cells (PBMC) were prepared from buffy coats from normal human donors according to standard methods. Experiments were performed by culturing HUVEC in microtiter plates in the presence of cytokines (IL-1b, 1 ng/ml; TNF-a, 5 ng/ml; and IFN-g, 100 ng/ml, or IL-4, 5 ng/ml and histamine, […]), activators (SAg, 20 ng/ml or LPS, 0.2 ng/ml), and/or PBMC (7.5×10^4 cells/well) for 24 h. Compounds were tested at the indicated concentrations. Compounds were prepared in the solvent as directed, added 1 hr before stimulation of the cells, and were present during the whole 24 hr stimulation period. The levels of readout parameters (proteins) were measured by cell-based ELISA. Briefly, microtiter plates are treated, blocked, and then incubated with primary antibodies or isotype control antibodies (0.01-0.5 mg/ml) for 1 hr. After washing, plates were incubated with a peroxidase-conjugated anti-mouse IgG secondary antibody or a biotin-conjugated anti-mouse IgG antibody for 1 hr followed by streptavidin-HRP for 30 min. Plates were washed and developed with TMB substrate and the absorbance (OD) was read at 450 nm (subtracting the background absorbance at 650 nm). Other readout parameters include: total protein levels (SRB assay), measuring the viability of peripheral blood mononuclear cells (incorporation of propidium iodide); and microscopic visualization. SRB was performed by staining cells with 0.1% sulforhodamine B after fixation with 10% TCA, and reading wells at 560 nm. PBMC viability was assessed by adding propidium iodide (10 mg/ml) to PBMC that had been cultured for 24 hours in the presence of activators and measuring the percentage of cells that incorporated dye by flow cytometry after 10 minutes. For data analysis, mean OD values (or other measurements) for each parameter were calculated from triplicate samples per experiment. The mean value obtained for each parameter in a treated sample was then divided by the mean value from an appropriate control to generate a ratio. All ratios were then log 10 transformed. An average or “trusted” profile was created by averaging 2 repeats of the experiment for each compound and concentration combination. 99% prediction envelopes (grey shading in Figures) were calculated for historical controls.

Assay [6] has as its system Macrophages + HUVEC. The experiment in a line: BioMAP Mphg system (macrophages + endothelial cells + Zymosan). The assay is classed as cell-based, human. The method, then:
Macrophages, are generated from human peripheral blood mononuclear cells. Human peripheral blood mononuclear cells are isolated from blood by Ficoll-hypaque density gradient centrifugation as described (Ponath, JEM 183:2437, 1996). Monocytes are then isolated by negative selection using the Monocyte Isolation Kit II (Miltenyi Biotec, Germany) MACS beads according to the manufacturer's instructions. Alternatively, 10×10^6 peripheral blood mononuclear cells/ml are cultured in RPMI containing 10% fetal bovine serum for 3 hours and non-adherent lymphocytes are removed by gentle washing. The following are then applied for 7 to 8 days: MCSF (50 ng/ml) alone, or MCSF+one of the following cytokines, IL-4 (20 ng/ml), IL-6 (20 ng/ml), IFN-gamma (10 ng/ml), or GM-CSF (10 ng/ml)+IL-4 (20 ng/ml). To generate foam cells, the culture media is replaced with media containing 40% autologous serum or 40% Human AB Serum male (Cambrex Bioproducts) in RPMI+MCSF 50 ng/ml for an additional 4 to 5 days. Cells are harvested and resuspended to 10^6 cells/ml and added to confluent endothelial cells. Primary human umbilical vein endothelial cells (HUVEC) are used. Other cells that may replace HUVEC in the screen include primary microvascular endothelial cells, aortic or arteriolar endothelial cells. 7.5×10^4 cells/ml are cultured to confluence in EGM-2 (Clonetics). […]

Assay [7] concerns Primary human umbilical artery smooth muscle cells (UASMC). The experiment in a line: BioMAP SM3C system (smooth muscle cells + IL-1 + TNF-a + IFNg). The assay is classed as cell-based. As for the experimental part:
Primary human umbilical artery smooth muscle cells (UASMC) are used. Other cells that may replace UASMC in the screen include primary aortic, bronchial, coronary artery or pulmonary artery smooth muscle cells. Other muscle cells of interest include skeletal muscle cells and cardiomyocytes. Passage 5-7 cells are used for the screen. 4×10^4 cells/ml are cultured to 100% confluence on CellBind plates (Costar) in SmGM-2 (Clonetics) containing 5% FBS. In some cases, SmGM-2 may be removed 24 hours before screen, and replaced with serum-free SmBM basal media (Clonetics) supplemented with insulin. The following are then applied for 24 hours: Factors include a combination of IL-4 (5 ng/ml), and histamine (HIS) (10 μM) or a combination of IL-1 (1 ng/ml), TNF-a (5 ng/ml) and IFNg (20 ng/ml) (SM3C) and/or thrombin (10 units/ml) for 6 and/or 24 hours. Standard concentrations of agents are employed as described in the literature. Other factors of interest include: IL-6, LPS, endothelin-1 and angiotensin II. Based on the parameters altered by the indicated factors, BioMAPs are generated for the parameters VCAM, HLA-DR, IL-8, MCP-1, Thrombomodulin, tissue factor, LDL-receptor and uPAR. […]

Assay [8] has as its system heart transplant patients. The settings on record: cited from earlier work.
The mark [9] stands for this setting: protein level drug-treated versus buffer control, 24 h.

As to `S=C([S-])OC1CC2CC1C1CCCC21.[K+]` (stereo not drawn) [D609], in assay [1], the CD69 level result was “downregulation”, the E-selectin level result is “upregulation” and the IL-8 level result is recorded as “upregulation”.
As to `CCCCCCCCCCCCCCCCCCOCC(COP(=O)([O-])OCC[N+](C)(C)C)OC` (stereo not drawn) [ET-18-OCH3], in assay [1], the CD69 level entry was “downregulation”, the E-selectin level entry is reported as “upregulation” and the IL-8 level entry is on record as “upregulation”.
On to `CC(C)c1c(C(=O)Nc2ccccc2)c(-c2ccccc2)c(-c2ccc(F)cc2)n1CC[C@@H](O)C[C@@H](O)CC(=O)O` [atorvastatin], for which the uPAR level result in assay [2] is given as “significant decreases”. Besides, in assay [3], the Eotaxin-3 level result is on record as “increases” and the MCP-1 level entry is given as “significant decreases”. The “BioMAP profile compared with the lovastatin profile” value in assay [4] was “induce the same BioMAP profile”.
With `COCc1c(C(C)C)nc(C(C)C)c(/C=C/[C@@H](O)C[C@@H](O)CC(=O)O)c1-c1ccc(F)cc1` [cerevistatin], the “BioMAP profile compared with the lovastatin profile” value in assay [4] is on record as “induce the same BioMAP profile”.
Take `CC[C@H](C)C(=O)O[C@H]1C[C@@H](C)C=C2C=C[C@H](C)[C@H](CC[C@@H]3C[C@@H](O)CC(=O)O3)[C@H]21` [lovastatin]: the uPAR level result in assay [2] is recorded as “significant decreases”. Further, in assay [3], the Eotaxin-3 level result is given as “increases” and the MCP-1 level result is “significant decreases”. In addition, in assay [5] (setting [9]), the IL-1alpha level result is “significant decreases”, the M-CSF level entry was “increases” and the tissue factor level entry is given as “increases”.
On to `CC[C@H](C)C(=O)O[C@H]1CCC=C2C=C[C@H](C)[C@H](CC[C@@H]3C[C@@H](O)CC(=O)O3)[C@H]21` [mevastatin], for which the “BioMAP profile compared with the lovastatin profile” value in assay [4] is “induce the same BioMAP profile”.
As to `COc1c(C)c2c(c(O)c1C/C=C(\C)CCC(=O)O)C(=O)OC2` [mycophenolic acid], the MCP-1 level entry in assay [2], in assay [5], in assay [1], in assay [6] and in assay [7] was “inhibition” in each case. Further, in assay [8], the “long-term benefit against post-transplant vasculopathy” value is on record as “protecting against post-transplant vasculopathy”.
